Test results as given in the supplement of paper PMC11451515.

System: SEM cells
Assay: cell viability relative to DMSO control; higher = less cytotoxic
Settings: 48 h
How it was run: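 Library compounds in DMSO were pin-dosed into 1536-well plates (5 μl) holding NOMO1 or SEM (500 cells/well) or P12-Ichikawa (1000 cells/well) leukemia cells, across an 11-point threefold series of 47 μM to 0.79 nM. Each cell line had been adapted for at least four passages in each medium. CellTiter-Glo One luminescence was read after 48 h at 37°C. Viability is the per-plate percentage relative to DMSO wells, with cell-free wells as background.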

[1] = HPLM + 10% dialyzed FBS, 0.000781 µM
[2] = HPLM + 10% dialyzed FBS, 0.00234 µM
[3] = HPLM + 10% dialyzed FBS, 0.00702 µM
[4] = HPLM + 10% dialyzed FBS, 0.0211 µM
[5] = HPLM + 10% dialyzed FBS, 0.0632 µM
[6] = HPLM + 10% dialyzed FBS, 0.19 µM
[7] = HPLM + 10% dialyzed FBS, 0.569 µM
[8] = HPLM + 10% dialyzed FBS, 1.71 µM
[9] = HPLM + 10% dialyzed FBS, 5.12 µM
[10] = HPLM + 10% dialyzed FBS, 15.4 µM
[11] = HPLM + 10% dialyzed FBS, 46.1 µM
[12] = RPMI 5 mM glucose + 10% FBS, 0.000781 µM
[13] = RPMI 5 mM glucose + 10% FBS, 0.00234 µM
[14] = RPMI 5 mM glucose + 10% FBS, 0.00702 µM
[15] = RPMI 5 mM glucose + 10% FBS, 0.0211 µM
[16] = RPMI 5 mM glucose + 10% FBS, 0.0632 µM
[17] = RPMI 5 mM glucose + 10% FBS, 0.19 µM
[18] = RPMI 5 mM glucose + 10% FBS, 0.569 µM
[19] = RPMI 5 mM glucose + 10% FBS, 1.71 µM
[20] = RPMI 5 mM glucose + 10% FBS, 5.12 µM
[21] = RPMI 5 mM glucose + 10% FBS, 15.4 µM
[22] = RPMI 5 mM glucose + 10% FBS, 46.1 µM
[23] = RPMI 5 mM glucose + 10% dialyzed FBS, 0.000781 µM
[24] = RPMI 5 mM glucose + 10% dialyzed FBS, 0.00234 µM
[25] = RPMI 5 mM glucose + 10% dialyzed FBS, 0.00702 µM
[26] = RPMI 5 mM glucose + 10% dialyzed FBS, 0.0211 µM
[27] = RPMI 5 mM glucose + 10% dialyzed FBS, 0.0632 µM
[28] = RPMI 5 mM glucose + 10% dialyzed FBS, 0.19 µM
[29] = RPMI 5 mM glucose + 10% dialyzed FBS, 0.569 µM
[30] = RPMI 5 mM glucose + 10% dialyzed FBS, 1.71 µM
[31] = RPMI 5 mM glucose + 10% dialyzed FBS, 5.12 µM
[32] = RPMI 5 mM glucose + 10% dialyzed FBS, 15.4 µM
[33] = RPMI 5 mM glucose + 10% dialyzed FBS, 46.1 µM

Row | SMILES | cell viability [1] | cell viability [2] | cell viability [3] | cell viability [4] | cell viability [5] | cell viability [6] | cell viability [7] | cell viability [8] | cell viability [9] | cell viability [10] | cell viability [11] | cell viability [12] | cell viability [13] | cell viability [14] | cell viability [15] | cell viability [16] | cell viability [17] | cell viability [18] | cell viability [19] | cell viability [20] | cell viability [21] | cell viability [22] | cell viability [23] | cell viability [24] | cell viability [25] | cell viability [26] | cell viability [27] | cell viability [28] | cell viability [29] | cell viability [30] | cell viability [31] | cell viability [32] | cell viability [33]
1 | O=C/1\C=C(/OC(=C1)/C2=C3SC4=C(SC3=CC=C2)C=CC=C4)N5CCOCC5 | 74.3% | 84.1% | 92.6% | 21.5% | 99.7% | 105% | 102% | 104% | 96.3% | 90.3% | 86.7% | 85.8% | 92.7% | 101% | 15.8% | 109% | 117% | 108% | 105% | 106% | 105% | 112% | 91.5% | 87.6% | 88% | 15.5% | 93% | 99.1% | 96% | 108% | 91.4% | 85.5% | 91.3%
2 | O=C1Nc2ccccc2/C1=C1\Nc2ccccc2C1=O | 82.1% | 85.1% | 85.5% | 84.9% | 80.4% | 64.2% | 63.3% | 75% | 73.9% | 86.8% | 69.8% | 104% | 87.4% | 90.6% | 87.5% | 90.1% | 79.4% | 84% | 71.2% | 81.4% | 78.4% | 77.7% | 89.2% | 91.7% | 85.2% | 85.4% | 82.5% | 70.6% | 60.6% | 67% | 74.4% | 86% | 80.3%
3 | O=C1NC(=O)[C@@H](c2cn3c4c(cccc24)CCC3)[C@@H]1c1c[nH]c2ccccc12 | 91.6% | 98.3% | 111% | 99.9% | 93.8% | 75.2% | 96.5% | 39.9% | 25.5% | 22.3% | 28.9% | 117% | 114% | 113% | 115% | 124% | 76.2% | 88% | 27.4% | 20.6% | 16.2% | 22.5% | 90.6% | 98.5% | 103% | 84.1% | 114% | 83.2% | 102% | 39.1% | 22.7% | 16.4% | 34.4%
4 | O=C(O)c1ccccc1C(=O)Nc1ccc(-c2ccccc2)cc1 | 63.8% | 130% | 117% | 124% | 119% | 118% | 130% | 124% | 127% | 128% | 88.5% | – | – | – | – | – | – | – | – | – | – | – | – | – | – | – | – | – | – | – | – | – | –
5 | O=C(O)[C@H](Cc1c[nH]c2ccccc12)N1C(=O)c2ccccc2C1=O | 85.2% | 63.5% | 96.4% | 92.4% | 99.3% | 102% | 91.7% | 97.8% | 105% | 99.4% | 83.8% | 99.1% | 52.9% | 105% | 112% | 100% | 108% | 90.7% | 93.3% | 92% | 84.8% | 77.4% | 89.8% | 41.9% | 96.4% | 94.8% | 83.8% | 87.4% | 99.3% | 84.7% | 97.1% | 81.9% | 68%
6 | CCCCCCCCCCCC(CC1OC(=O)C1CCCCCC)OC(=O)C(CC(C)C)NC=O (configuration not stated) | 86.9% | 82.3% | 96.1% | 99% | 92.8% | 98.8% | 91.4% | 98% | 83.2% | 65.1% | 10.1% | 82.2% | 86.8% | 96.6% | 86.6% | 86.9% | 91.2% | 79.9% | 76.2% | 48.2% | 24.9% | 6.99% | 86.9% | 90.5% | 101% | 82.1% | 105% | 99.4% | 108% | 87.6% | 64.8% | 38.1% | 7.62%
7 | CC[C@H]1OC(=O)[C@H](C)[C@@H](O[C@H]2C[C@@](C)(OC)[C@@H](O)[C@H](C)O2)[C@H](C)[C@@H](O[C@@H]2O[C@@H](C)C[C@H](N(C)C)[C@H]2O)[C@](C)(O)C[C@@H](C)C(=O)[C@H](C)[C@@H](O)[C@]1(C)O | 79.6% | 80.8% | 87.8% | 95.4% | 80.6% | 85.6% | 105% | 81.4% | 89.8% | 82.3% | 32.2% | 83% | 94.3% | 101% | 102% | 90% | 105% | 106% | 106% | 94.8% | 35% | 18.7% | 79.5% | 84.9% | 84.7% | 96.9% | 89.4% | 94.5% | 92.2% | 86.8% | 80.6% | 80.7% | 24.5%
8 | COc1cc2c(N3CCN(C(=O)Nc4ccc(OC(C)C)cc4)CC3)ncnc2cc1OCCCN1CCCCC1 | 66.4% | 73.3% | 82.7% | 93.8% | 56.3% | 32.1% | 41.1% | 33.8% | 38% | 13.8% | 15.1% | 89.5% | 104% | 116% | 98.1% | 73% | 66.8% | 51.3% | 39.1% | 46.6% | 16.2% | 22.6% | 82.2% | 85.2% | 83.3% | 77.8% | 65% | 35.5% | 37.3% | 26.1% | 27.6% | 14.1% | 12.8%
